Data on 13 compounds can be found in patent US5817685A, “Anticonvulsive imidazoline-2,4-diones and process for making” (Arzneimittelwerk Dresden GmbH, priority 1996, dated 1998).

Where two headings read alike, the source gives them in different places.

Usually ED50 stands for the midpoint of the dose-response relation.

Series [1] relates to electrically induced seizures (maximum electroshock). As to the kind of experiment: maximum electroshock (MES) test in mice. In kind it is in vivo, mouse. Particulars: ip. The protocol: (§1) They were tested for their anticonvulsive action in vivo after i.p. administration using the international customary mouse animal models described in Pharmac Weekblad, Sc. Ed.
Seizures can also be induced electrically for the identification of anticonvulsant activity. This test is referred to as the MES test for identifying CNS active drugs. A […] (60 Hz) electrical current for 0.2 s is delivered by a corneal electrode to mice. The current is four to five times as large as the threshold current needed to produce the tonic seizure. These specific parameters are used to identify compounds that prevent seizure spread, therapeutic agents for generalized tonic clonic seizures. Therapeutic agents for absence of seizures are undetected. However, when the current is lowered to […], compounds which modify both seizure spread and seizure threshold are identified.
^1 MES = maximum electroshock

The subject of series [2] is pentetrazol-induced seizures. The series is described as follows: s.c. pentetrazol (PTZ) test in mice. In kind it is in vivo. Particulars: mouse. The procedure:
as §1
The most commonly used chemoconvulsant is pentetrazol which can be used as a primary screen for anticonvulsant activity when dosages that produce hindlimb tonic extension are administered. A dose of pentetrazol that produces solely clonic seizures cannot be used as primary screen for new compounds, as phenytoin and carbamazepine have no effect on the blocking of clonic seizures. This test using pentetrazol to induce seizures, used as a primary screen of anticonvulsant activity is referred to in the results below as PEZ.
^2 PTZ = S. C. pentetrazol

For another series, the system named is clonic seizures. Particulars: dose of pentetrazol that produces solely clonic seizures; cited from earlier work.
Series [3] deals with seizures (maximum electroshock model, pentetrazol test). As to the kind of experiment: anticonvulsive action in mouse animal models (maximum electroshock and pentetrazol). Type of series: in vivo. Particulars: comparison with known antiepileptics. The protocol: They were tested for their anticonvulsive action in vivo after i.p. administration using the international customary mouse animal models described in Pharmac Weekblad, Sc. Ed. The most commonly used chemoconvulsant is pentetrazol which can be used as a primary screen for anticonvulsant activity when dosages that produce hindlimb tonic extension are administered. […] This test using pentetrazol to induce seizures, used as a primary screen of anticonvulsant activity is referred to in the results below as PEZ. Seizures can also be induced electrically for the identification of anticonvulsant activity. […] A […] (60 Hz) electrical current for 0.2 s is delivered by a corneal electrode to mice. The current is four to five times as large as the threshold current needed to produce the tonic seizure. These specific parameters are used to identify compounds that prevent seizure spread, therapeutic agents for generalized tonic clonic seizures. […] However, when the current is lowered to […], compounds which modify both seizure spread and seizure threshold are identified.

Series [4] in a line: octanol-H2O partition coefficient. Type of series: physicochemical. The settings on record: octanol-water, read-out: Log p (octanol-H2O) partition coeff.
The nature of another series: in vivo. The settings on record: mouse, ip.
[5] abbreviates: ip, i.p., read-out: Action % of Animals, PTZ.
The mark [6] stands for this setting: mouse, i.p., dose 100 mg/kg, read-out: Action % of Animals, MES.
The mark [7] stands for this setting: mouse, i.p., read-out: Action % of Animals, MES.

Turning to `CCCC(CCC)C(=O)O` [Valproate, reference compound], the responders at 100 mg/kg in series [1] (Mus musculus, read-out: Action % of Animals, MES) came to 0%; in series [2] (setting [5]), 0%.
For `NC(=O)N1c2ccccc2C=Cc2ccccc21` [Carbamazepine, reference compound], the responders at 100 mg/kg in series [1] (setting [6]) was 100%; in series [2] (setting [5]) it was 0%. In addition, in the series on clonic seizures, the “effect on the blocking of clonic seizures” value was “no effect”. Besides, the “activity in maximum electroshock model or pentetrazol test” value in series [3] is listed as “active either in the maximum electroshock model, or in the pentetrazol test, but not in both”.
Consider `O=C1CN(Cc2c(Cl)cccc2Cl)C(=O)N1` [Example 7, 1-(2,6-dichlorobenzyl)imidazoline-2,4-dione], for which the logP in series [4] was 1.44. Also, the responders at 100 mg/kg in series [1] (setting [6]) and in series [2] (setting [5]) was 100% in each case.
On to `O=C1CN(Cc2ccccc2Cl)C(=O)N1` [Example 6, 1-(2-chlorobenzyl)imidazoline-2,4-dione], for which the logP in series [4] came to 1.12. Further, the responders at 30 mg/kg in series [1] (setting [7]) and in series [2] (setting [5]) was 100% in each case.
Regarding `O=C1NC(=O)C(c2ccccc2)(c2ccccc2)N1` [phenytoin], the “effect on the blocking of clonic seizures” value in the series with clonic seizures is recorded as “no effect”.
Take `O=C1CN(c2c(Cl)cccc2Cl)C(=O)N1` [Example 3, 1-(2,6-dichlorophenyl)imidazoline-2,4-dione]: the logP in series [4] was 0.69. Moreover, in series [1] (setting [7]), the responders at 30 mg/kg was found to be 100%. For the same compound, the responders at 100 mg/kg in series [2] (setting [5]) came out at 100%.
In “in vivo”, `O=C1CN(Cc2c(F)cccc2F)C(=O)N1` [Example 8, 1-(2,6-difluorobenzyl)imidazoline-2,4-dione] gave a TD50 of 123 mg/kg. In addition, in series [4], the logP amounted to 0.63. In addition, the values for the ED50 in series [1] (mouse) and in series [2] (sc) were 36 mg/kg and 50 mg/kg, respectively. Moreover, the responders at 100 mg/kg in series [1] (setting [6]) and in series [2] (setting [5]) was 100% throughout.
Consider `Cc1cc(Cl)ccc1N1CC(=O)NC1=O` [Example 5, 1-(4-chloro-2-methylphenol)imidazoline-2,4-dione], for which the logP in series [4] was 0.86. The responders at 30 mg/kg in series [1] (setting [7]) and in series [2] (setting [5]) was 100% each time.
As for `O=C1CN(Cc2ccccc2C(F)(F)F)C(=O)N1` [Example 9], the responders at 30 mg/kg in series [1] (setting [7]) and in series [2] (setting [5]) was 100% in each case.
With `O=C1CN(c2ccccc2Cl)C(=O)N1` [Example 1, 1-(2-chlorophenyl)imidazoline-2,4-dione], the logP in series [4] came to 0.49. Moreover, the responders at 300 mg/kg in series [1] (mouse, i.p., dose 300 mg/kg, read-out: Action % of Animals, MES) worked out at 100%; in series [2] (ip, i.p., dose 300 mg/kg, read-out: Action % of Animals, PTZ), 0%.
As to `O=C1CN(c2ccccc2F)C(=O)N1` [Example 4, 1-(2-fluorophenyl)imidazoline-2,4-dione], the responders at 100 mg/kg in series [1] (setting [6]) and in series [2] (setting [5]) was 100% throughout.
For the compound `O=C1CN(c2cccc(Cl)c2Cl)C(=O)N1` [Example 2, 1-(2,3-dichlorophenyl)imidazoline-2,4-dione], the logP in series [4] came out at 1.16. Further, the responders at 100 mg/kg in series [1] (setting [6]) and in series [2] (setting [5]) was 100% each time.
As for `CCCC(CCC)C(=O)O` [calcium valproate], the “activity in maximum electroshock model or pentetrazol test” value in series [3] was “active either in the maximum electroshock model, or in the pentetrazol test, but not in both”.
